Values after ≈ are worked out from the molar mass of the structure shown.
Settings: buffer; pH 7.4; 200.0 µM
With `CCOC(=O)N1CCN(C(=O)c2cc3ccc(OC)cc3[nH]2)CC1` the solubility kinetic was 19.5 µg/mL (≈ 58.8 µM). In the case of `COc1ccc(/C=N/S(=O)(=O)c2ccc(C)cc2)cc1`, the solubility kinetic is reported as 41 µg/mL (≈ 142 µM). Molecule `NC(=O)C1=CN(Cc2ccc(Cl)cc2)CCC1C(F)(F)F` (stereo not drawn) has a solubility kinetic greater than 47.8 µg/mL. `CCc1ccccc1NC(=O)C1CCN(S(C)(=O)=O)CC1` showed a solubility kinetic greater than 46.6 µg/mL. `COc1ccc(OCCC(=O)OCC(=O)Nc2cccc(S(=O)(=O)N3CCCCC3)c2)cc1` showed a solubility kinetic of 30.5 µg/mL (≈ 64 µM). In the case of `Cc1ccccc1CSCC(=O)Nc1ccccc1Br`, the solubility kinetic is reported as 4.5 µg/mL (≈ 12.8 µM). In the case of `Cc1ccc(O)c(Nc2nc(-c3ccccc3)nc3ccccc23)c1`, the solubility kinetic is reported as less than 0.2 µg/mL. For `Cc1ccc2nc(SCC(=O)NC3CCCC3)[nH]c2c1`, the solubility kinetic was 36.1 µg/mL (≈ 125 µM). `COc1ccccc1N1CCN(C(=O)c2cccs2)CC1` showed a solubility kinetic greater than 45.4 µg/mL. With `CCC(NC(=S)NCc1ccc(F)cc1)c1ccc(C(C)C)cc1` (stereo not drawn) the solubility kinetic was less than 0.4 µg/mL. For `COc1ccc(N)cc1S(=O)(=O)Nc1ccccc1Cl`, the solubility kinetic was greater than 46.9 µg/mL. Work on `CN(C)C(=O)c1cc(C(=O)c2ccc(Cl)cc2Cl)c[nH]1` yielded a solubility kinetic of 23.4 µg/mL (≈ 75.2 µM). Work on `COC(=O)[C@H](CCSC)NC(=O)Nc1cccc(C)c1C` yielded a solubility kinetic of 37.1 µg/mL (≈ 120 µM). For `O=C(NCC1CCCO1)c1cc2c(s1)CCCC2` (stereo not drawn), the solubility kinetic was greater than 39.8 µg/mL. In the case of `COc1ccccc1NC(=O)CCCCC(=O)Nc1ccccc1OC`, the solubility kinetic is reported as 41.8 µg/mL (≈ 117 µM). In the case of `OCCCNc1ncnc2c1[nH]c1ccccc12`, the solubility kinetic is reported as 35.6 µg/mL (≈ 147 µM). `O=C(Nc1ccccc1C(=O)Nc1ccc(F)cc1)c1ccco1` gave a solubility kinetic of 0.9 µg/mL (≈ 2.78 µM). With `Cc1ccc(C(=O)NCCNC(=O)c2ccc(C)o2)o1` the solubility kinetic was 36.1 µg/mL (≈ 131 µM). Work on `CSCCC1NC(=O)N(CC(=O)Nc2cccc(S(=O)(=O)N3CCCCCC3)c2)C1=O` (stereo not drawn) yielded a solubility kinetic of 52.3 µg/mL (≈ 112 µM). Molecule `O=C(O)c1cccc(S(=O)(=O)NCC2COc3ccccc3O2)c1` (stereo not drawn) has a solubility kinetic greater than 52.4 µg/mL. Molecule `O=C(COC(=O)c1cc(S(=O)(=O)N2CCOCC2)c(Cl)cc1Cl)NCc1ccco1` has a solubility kinetic greater than 71.6 µg/mL. For `O=S(=O)(c1ccccc1C(F)(F)F)N1CCN(c2ncnc3sccc23)CC1`, the solubility kinetic was 4.6 µg/mL (≈ 10.7 µM). `O=C(c1ccsc1)N1CCCC(N2CCOCC2)C1` (stereo not drawn) showed a solubility kinetic greater than 42.1 µg/mL. Molecule `O=S(=O)(NCC(O)c1ccccc1)c1cc(Cl)sc1Cl` (stereo not drawn) has a solubility kinetic of 49.7 µg/mL (≈ 141 µM). In the case of `Cc1cc(C)c(C#N)c(SCCN2CCCCC2)n1`, the solubility kinetic is reported as greater than 41.3 µg/mL. Molecule `O=C(NCc1ccc(Cl)cc1)C1CCC(=O)N(C2CC2)C1` (stereo not drawn) has a solubility kinetic greater than 46 µg/mL. With `CC(=O)N[C@@H](Cc1c[nH]c2ccccc12)C(=O)OCc1cc(C(F)(F)F)cc(C(F)(F)F)c1` the solubility kinetic was 3.4 µg/mL (≈ 7.2 µM). Molecule `O=C1NC(=S)N/C1=C\C=C\c1ccccc1` has a solubility kinetic of 1.7 µg/mL (≈ 7.38 µM). Work on `COc1cccc(C(=O)NCCNC(=O)c2ccccn2)c1` yielded a solubility kinetic greater than 44.9 µg/mL. Molecule `CCCc1cc(=O)[nH]c(SCC(=O)Nc2ccc3ccccc3c2)n1` has a solubility kinetic of 2.6 µg/mL (≈ 7.36 µM). With `CC1C(=O)N2CCCc3cc(NS(C)(=O)=O)cc1c32` (stereo not drawn) the solubility kinetic was 40.3 µg/mL (≈ 144 µM). Molecule `Cc1occc1C(=O)/C(C#N)=C/c1ccc(O)c(Br)c1` has a solubility kinetic greater than 49.8 µg/mL. With `O=C(O)CCC(=O)Nc1ccc(Br)cc1C(=O)c1ccccc1Cl` the solubility kinetic was greater than 61.6 µg/mL. With `Cc1ccnc(S(=O)(=O)Cc2ccc([N+](=O)[O-])cc2)n1` the solubility kinetic was greater than 44 µg/mL. Molecule `CC(C)(C)C1CCc2onc(C(=O)O)c2C1` (stereo not drawn) has a solubility kinetic greater than 33.5 µg/mL. Molecule `O=c1cc(-c2ccncc2)oc2c1ccc1ccccc12` has a solubility kinetic of 0.7 µg/mL (≈ 2.56 µM). In the case of `Cc1occc1C(=O)N1CCN(c2ccc(Cl)cc2)CC1`, the solubility kinetic is reported as 43.6 µg/mL (≈ 143 µM). Work on `O=C(c1cc(F)ccc1F)C1CCCN(Cc2cccc(Cl)c2)C1` (stereo not drawn) yielded a solubility kinetic of 2.1 µg/mL (≈ 6 µM). `Cl.NC(Cc1nc2ccccc2[nH]1)c1ccc(Cl)cc1` (stereo not drawn) gave a solubility kinetic of 37.7 µg/mL. `COc1ccccc1/C=C/C(=O)NC1CC2CCC1C2` (stereo not drawn) gave a solubility kinetic of 2 µg/mL (≈ 7.37 µM). In the case of `S=C(Nc1ccc(Cl)c(Cl)c1)N1CCCC1`, the solubility kinetic is reported as 3.3 µg/mL (≈ 12 µM). `COc1ccc([N+](=O)[O-])c(OC)c1C(=O)NC(=O)Nc1nc(C)nc(C)n1` gave a solubility kinetic greater than 56.4 µg/mL. Molecule `CCc1nc(Nc2cccc(F)c2)c2oc3ccccc3c2n1.Cl` has a solubility kinetic of less than 0.2 µg/mL. `COc1ccc(CN2CCc3ccccc3C2)c(OC)c1` showed a solubility kinetic of 29.6 µg/mL (≈ 104 µM). For `COc1ccc(Nc2ncnc3ccc([N+](=O)[O-])cc23)c(OC)c1`, the solubility kinetic was 10.5 µg/mL (≈ 32.2 µM). With `COc1cccc(C(=O)Nc2ccc(NC(=O)C3CCCCC3)nc2)c1` the solubility kinetic was 2 µg/mL (≈ 5.66 µM). `Cc1onc(-c2ccccc2)c1C(=O)N1CCCC1` showed a solubility kinetic greater than 38.4 µg/mL. For `CC(C)c1ccc(NC(=O)Nc2cnccn2)cc1`, the solubility kinetic was 3.9 µg/mL (≈ 15.2 µM). `COc1ccccc1NS(=O)(=O)c1cccc(NS(=O)(=O)c2ccc(Cl)c(C(=O)O)c2)c1` showed a solubility kinetic greater than 74.5 µg/mL. In the case of `COc1ccc(C(=O)Nc2nc3ccc(OC)cc3s2)cc1`, the solubility kinetic is reported as 1.4 µg/mL (≈ 4.45 µM). With `O=S(=O)(Nc1ccc(Cl)cc1)c1cccc2nsnc12` the solubility kinetic was greater than 48.9 µg/mL. Work on `CCn1cc(C(=S)N2CCC(C(N)=O)CC2)c2ccccc21` yielded a solubility kinetic of 38.7 µg/mL (≈ 123 µM). With `Cn1ccnc1C(=O)c1cccc(Br)c1` the solubility kinetic was greater than 39.8 µg/mL. Work on `CN1C(=O)/C(=C\c2ccc(N3CCCCCC3)cc2)C(=O)NC1=S` yielded a solubility kinetic of 2.7 µg/mL (≈ 7.86 µM). In the case of `CSc1cccc(NC(=S)Nc2cc(C)ccc2C)c1`, the solubility kinetic is reported as 22.5 µg/mL (≈ 74.4 µM). Work on `Cc1ccc(C2=NC3(CCCC3)NC2=S)cc1` yielded a solubility kinetic of 2.2 µg/mL (≈ 9 µM). `COn1c(C)c(C)c2c3nonc3ccc21` gave a solubility kinetic of 8.9 µg/mL (≈ 41 µM). `O=C(COC(=O)CNC(=O)c1cccc(OC(F)F)c1)NCc1ccc2c(c1)OCO2` gave a solubility kinetic of 22 µg/mL (≈ 50.4 µM).
